Assays:
FGF19-induced HCC = test: Tumorigenicity study in IL-6-deficient mice; type: in vivo; settings: both Il6+/+ and Il6-/- mice, AAV-expressed FGF19
Procedure: (§1) Histology and immunohistochemistry. […] Hematoxylin and eosin staining was performed using standard methods. […] When indicated, sections were counterstained with hematoxylin.
Tumorigenicity study in IL-6-deficient mice. Il6^−/− mice were backcrossed to C57BL/6 mice for at least nine generations. Age and gender-matched wild type C57BL6 mice were used as Il6^+/+ controls. […] Body weight, body composition, and blood glucose were measured at designated times. Mice were euthanized 52 weeks post-AAV administration for liver tumor assessment.

[1] = tested on: primary mouse hepatocytes; test: In vitro BrdU incorporation in primary mouse hepatocytes; type: cell-based; settings: 48 hours incubation
Procedure: FIGS. 2A-2E depict non-cell autonomous promotion of hepatocellular proliferation by FGF19. 11 week old mice (n=5 per group) were implanted with osmotic pumps releasing BrdU (8.5 mg/kg/day) and FGF19 protein (0.4 mg/kg/day). Livers were harvested 6 days post-implant. (FIG. 2A) Flow cytometry analysis of BrdU-labeled livers is shown. Representative histograms from hepatocytes stained with 7-ADD and anti-BrdU-APC are shown. (FIG. 2B) BrdU-positive hepatocytes as a percentage of total hepatocytes from vehicle (V)-treated (n=5) or FGF19-treated (n=5) mice were quantified by flow cytometry. (FIG. 2C) Shown are circulating FGF19 levels on day 6 post-implant of osmotic pumps. (FIG. 2D) Lack of proliferative effects of FGF19 on primary mouse hepatocytes. Primary cultures of hepatocytes isolated from mouse liver were incubated with recombinant FGF19 protein at the indicated concentrations for 48 hours and BrdU was added during the last 20 hours of incubation. BrdU incorporation was determined using a luminescence method. Mouse hepatocyte growth factor (mHGF) was included as a positive control. RLU, relative luminescence unit. (FIG. 2E) Lack of proliferative effects of FGF19 on primary human hepatocytes. Primary cultures of hepatocytes isolated from human liver were incubated with recombinant FGF19 protein. Human hepatocyte growth factor (hHGF) was included as a positive control. […]

hepatocytes = test: In vivo BrdU incorporation (osmotic pump, 6 days); design: species or system mice
Procedure: In vivo BrdU incorporation. For surgical implant, mice were anesthetized with isoflurane, and osmotic pumps (#1002, Alzet) releasing 8.5 mg/kg/day 5-bromo-2-deoxyuridine (BrdU, Sigma) and 0.4 mg/kg/day FGF19 protein were implanted subcutaneously on the back on day 1. Incisions were closed with surgical clippers and 3-0 silk suture. Mice were euthanized on day 6, and serum and livers were collected for exposure and BrdU incorporation analysis.
as §1
Flow cytometry. For quantification of BrdU incorporation by flow cytometry, livers were minced in RPMI media containing 0.1% collagenase for 30 minutes at 37° C. and passed through 70 μm filter. […]. Cells were analyzed on a BD Caliper flow cytometer and data were collected using CellQuest software and analyzed using Flowjo program.
To determine the direct effect of FGF19 on hepatocyte proliferation in a cell autonomous manner, the proliferative effects of FGF19 in vivo and in isolated hepatocytes were compared by assessing the incorporation of 5-bromo-2-deoxyuridine (BrdU) into newly synthesized DNA. FGF19 was administered at a concentration of 0.4 mg/kg/day and BrdU was administered at 8.5 mg/kg/day. After being administered to mice for six days through an osmotic pump, recombinant FGF19 protein induced incorporation of BrdU into hepatocytes as evidenced by immunohistochemical staining (with hematoxylin) and by flow cytometry analysis (hepatocytes were stained with 7-AAD and anti-BrdU-APC) (FIGS. 2A and 2B). […] Plasma concentrations of FGF19 were 5.2±1.2 ng/mL at the end of the study (FIG. 2C).

STAT3 = test: In vivo pSTAT3 activation, immunoblot of liver lysates; settings: db/db mice, 1 mg/kg FGF19 i.p.
Procedure: In vivo pSTAT3 activation.
Immunoblotting. Cell or tissue lysates were mixed with 4×SDS sample loading buffer (50 mM Tris-Cl, pH6.8, 2.5% SDS, urea, 4% β-mercaptoethanol), heated for 10 minutes at 95° C., and separated on 4-20% SDS-polyacrylamide gels (Life Technologies) in 1×MOPS running buffer. Proteins were transferred onto PVDF membranes (GE Healthcare). Membranes were blocked in TBST buffer (20 mM Tris-Cl, pH 7.6, 137 mM NaCl, 0.1% Tween-20) containing 5% non-fat dry milk for 1 hour at room temperature, and incubated with anti-pSTAT3^Y705, anti-total STAT3, anti-pERK, anti-total ERK, or anti-β-actin antibodies in blocking buffer at 4° C. overnight. Membranes were washed in TBST extensively, and bound proteins were detected with horseradish peroxidase-conjugated goat-anti-mouse IgG or goat-anti-rabbit IgG antibodies (GE Healthcare) for 1 hour at room temperature. Signals were developed with SuperSignal West Dura extended duration substrate (Thermo Scientific), and captured with a ChemiDoc XrS+ imaging system (Bio-Rad).
To examine STAT3 activation following FGF19 treatment in vivo, 11 week old diabetic db/db mice (on BKS background) were administered with 1 mg/kg of recombinant FGF19 protein i.p., and livers were harvested after 2 hours. Phosphorylation of STAT3 at tyrosine residue 705 (pSTAT3^Y705) was evident by immunoblotting of liver lysates (FIG. 1A). […]

FGF19: Fibroblast growth factor 19, mature human 194 amino acid polypeptide (SEQ ID NO: 1); recombinant protein or AAV-expressed
Body fat composition (FGF19-induced HCC): efficiently reduced | BrdU signal [1]: no increase | BrdU-positive cells in liver (flow cytometry) (hepatocytes; 20 μg per mouse per day (0.4 mg/kg/day) by osmotic pump, six days): 9.2+1.5% | PCNA and Ki-67 expression (hepatocytes; FGF19-treated mice, osmotic pump, six days): higher | Plasma concentrations of FGF19 at the end of the study (hepatocytes; osmotic pump 0.4 mg/kg/day, day 6): 5.2 ± 1.2 ng/mL | Phosphorylation of ERK1 and ERK2 in the liver (STAT3; 2 hours): induced phosphorylation | Phosphorylation of STAT3 at tyrosine residue 705 (pSTAT3 Y705) in liver lysates (STAT3; livers harvested after 2 hours): evident

From patent US11370841B2, “Methods of treating fibroblast growth factor 19-mediated cancers and tumors” (NGM Biopharmaceuticals, Inc., priority 2016, dated 2022)
